# Measurements from ChEMBL document CHEMBL1201862, “PubChem BioAssay data set” (2004).
#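 Assay format: 96-well plates, 48-hour exposure. GI50: concentration for 50% inhibition of growth.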 Active and inactive are the calls of the source. Rule as the data show it: active = GI50 up to about 1.1 µM and inactive = higher. Non-standard residues stand in square brackets, D forms with d. Residues, ends and D or L forms follow the SMILES beside them. *: point of attachment. hSer = N[CH](CCO)C(=O)O; Boc = CC(C)(C)OC(=O)*
# What was measured:
# Assay in all cases: NCI anticancer screen, dose series, 48 h
# Hs-578T = tested on: Hs-578T
# SN12C = tested on: SN12C
# SK-MEL-28 = tested on: SK-MEL-28
# MCF7 = tested on: MCF7
# K562 = tested on: K562
# EKVX = tested on: EKVX
# NCI/ADR-RES = tested on: NCI/ADR-RES
# NCI-H522 = tested on: NCI-H522
# SF-539 = tested on: SF-539
# MOLT-4 = tested on: MOLT-4
# CCRF-CEM = tested on: CCRF-CEM
# NCI-H460 = tested on: NCI-H460
# SK-MEL-5 = tested on: SK-MEL-5
# NCI-H23 = tested on: NCI-H23
# ACHN = tested on: ACHN
# OVCAR-3 = tested on: OVCAR-3
# SF-268 = tested on: SF-268
# LOX IMVI = tested on: LOX IMVI
# HL-60 = tested on: HL-60
Compound,GI50 (Hs-578T),GI50 (SN12C),GI50 (SK-MEL-28),GI50 (MCF7),GI50 (K562),GI50 (EKVX),GI50 (NCI/ADR-RES),GI50 (NCI-H522),GI50 (SF-539),GI50 (MOLT-4),GI50 (CCRF-CEM),GI50 (NCI-H460),GI50 (SK-MEL-5),GI50 (NCI-H23),GI50 (ACHN),GI50 (OVCAR-3),GI50 (SF-268),GI50 (LOX IMVI),GI50 (HL-60)
Cc1nc(N)nc2ccccc12,> 100 µM (inactive),> 100 µM (inactive),> 100 µM (inactive),> 100 µM (inactive),> 100 µM (inactive),44.8 µM (inactive),> 100 µM (inactive),> 100 µM (inactive),> 100 µM (inactive),> 100 µM (inactive),> 100 µM (inactive),> 100 µM (inactive),> 100 µM (inactive),> 100 µM (inactive),> 100 µM (inactive),> 100 µM (inactive),> 100 µM (inactive),> 100 µM (inactive),> 100 µM (inactive)
Nc1ncnc2nn(C3OC(CO)C(O)C3O)nc12 (centres undefined),31.5 µM (inactive),8.02 µM (inactive),36.6 µM (inactive),8.28 µM (inactive),5.46 µM (inactive),41.3 µM (inactive),9.73 µM (inactive),6.82 µM (inactive),21.8 µM (inactive),15.1 µM (inactive),21.1 µM (inactive),4.09 µM (inactive),12.8 µM (inactive),20.3 µM (inactive),3.67 µM (inactive),7.57 µM (inactive),20.4 µM (inactive),6.32 µM (inactive),2.43 µM (inactive)
CCOC(=O)c1oc2cc3c(c4c2c1-c1ccccc1N4C)C=CC(C)(C)O3,19.9 µM (inactive),40.6 µM (inactive),23.5 µM (inactive),2.37 µM (inactive),6.71 µM (inactive),15.3 µM (inactive),6.3 µM (inactive),8.71 µM (inactive),6.4 µM (inactive),14 µM (inactive),12.4 µM (inactive),20.5 µM (inactive),15.8 µM (inactive),22.2 µM (inactive),8.89 µM (inactive),9.59 µM (inactive),13.5 µM (inactive),16.4 µM (inactive),24.4 µM (inactive)
[N-]=[N+]=NC1C(O)C(CO)OC1n1ccc(=O)[nH]c1=O (centres undefined),> 875 µM (inactive),> 875 µM (inactive),> 875 µM (inactive),> 875 µM (inactive),> 875 µM (inactive),344 µM (inactive),> 875 µM (inactive),> 875 µM (inactive),> 875 µM (inactive),> 875 µM (inactive),> 875 µM (inactive),> 875 µM (inactive),> 875 µM (inactive),> 875 µM (inactive),> 875 µM (inactive),> 875 µM (inactive),> 875 µM (inactive),> 875 µM (inactive),863 µM (inactive)
O=C(NCc1ccc(Cl)c(Cl)c1)c1nc2ccccc2nc1NCc1ccc(Cl)c(Cl)c1,> 100 µM (inactive),> 100 µM (inactive),> 100 µM (inactive),> 100 µM (inactive),> 100 µM (inactive),> 100 µM (inactive),> 100 µM (inactive),> 100 µM (inactive),> 100 µM (inactive),,> 100 µM (inactive),> 100 µM (inactive),> 100 µM (inactive),> 100 µM (inactive),> 100 µM (inactive),> 100 µM (inactive),> 100 µM (inactive),> 100 µM (inactive),> 100 µM (inactive)
Cc1ccc(C)n1-c1ccccc1C1C=Cn2c3c1c(=O)c(OC(C)C)c(OC(C)C)c-3n[nH]c2=O (centres undefined),35.4 µM (inactive),42 µM (inactive),17.5 µM (inactive),22.2 µM (inactive),12.2 µM (inactive),28.4 µM (inactive),32.6 µM (inactive),17 µM (inactive),58.3 µM (inactive),6.62 µM (inactive),13.3 µM (inactive),37.6 µM (inactive),5.01 µM (inactive),53.8 µM (inactive),45.8 µM (inactive),35.5 µM (inactive),59.2 µM (inactive),25.9 µM (inactive),5.45 µM (inactive)
C=C(C)C(=O)O[C@H]1CC2=CC(CC(C)=C[C@H]3OC(=O)C(=C)C13)OC2=O (some centres undefined),99.1 µM (inactive),22.1 µM (inactive),14.1 µM (inactive),13.1 µM (inactive),7.74 µM (inactive),20.6 µM (inactive),38.3 µM (inactive),2.53 µM (inactive),29.7 µM (inactive),19.8 µM (inactive),4.74 µM (inactive),31.1 µM (inactive),68.2 µM (inactive),39.3 µM (inactive),13.2 µM (inactive),24.7 µM (inactive),20.6 µM (inactive),21 µM (inactive),3.65 µM (inactive)
C/C(=N\NC(=O)N/N=C(\C)c1ccccn1)c1ccccn1,> 38.6 µM (inactive),2.16 µM (inactive),1.92 µM (inactive),7.16 µM (inactive),0.118 µM (active),19.3 µM (inactive),8.83 µM (inactive),67.1 µM (inactive),0.188 µM (active),0.555 µM (active),9.18 µM (inactive),0.953 µM (active),0.296 µM (active),0.15 µM (active),18.2 µM (inactive),45.1 µM (inactive),4.18 µM (inactive),0.466 µM (active),0.0767 µM (active)
CC1(C)CCC2=C(O1)/C(=N\Nc1ccccc1)c1ccccc1C2=O,35.6 µM (inactive),20.3 µM (inactive),59.6 µM (inactive),18.9 µM (inactive),39.9 µM (inactive),20.9 µM (inactive),31.1 µM (inactive),29.4 µM (inactive),26.5 µM (inactive),34 µM (inactive),56.1 µM (inactive),23.2 µM (inactive),32.1 µM (inactive),34.8 µM (inactive),17.7 µM (inactive),24 µM (inactive),48.3 µM (inactive),22 µM (inactive),35.8 µM (inactive)
COc1ccc2nc3cc(Cl)ccc3c(NCCNCCCNC(=O)c3cc(-c4ccccc4)nc4ccccc34)c2c1,> 100 µM (inactive),> 100 µM (inactive),> 100 µM (inactive),> 100 µM (inactive),70.8 µM (inactive),> 100 µM (inactive),> 100 µM (inactive),> 100 µM (inactive),> 100 µM (inactive),> 100 µM (inactive),> 100 µM (inactive),> 100 µM (inactive),67 µM (inactive),> 100 µM (inactive),> 100 µM (inactive),54.7 µM (inactive),> 100 µM (inactive),82.6 µM (inactive),31.3 µM (inactive)
CN(C)CCCOC(=O)C(c1ccccc1)C1(O)CCSCC1 (centres undefined),> 100 µM (inactive),> 100 µM (inactive),> 100 µM (inactive),> 100 µM (inactive),> 100 µM (inactive),> 100 µM (inactive),10.2 µM (inactive),> 100 µM (inactive),> 100 µM (inactive),> 100 µM (inactive),> 100 µM (inactive),> 100 µM (inactive),> 100 µM (inactive),> 100 µM (inactive),> 100 µM (inactive),> 100 µM (inactive),> 100 µM (inactive),> 100 µM (inactive),> 100 µM (inactive)
COc1ccc2c(c1)CCC(CN1CCN(CCOC(c3ccc(F)cc3)c3ccc(F)cc3)CC1)C2O (centres undefined),15.4 µM (inactive),17.3 µM (inactive),14.6 µM (inactive),19.3 µM (inactive),4.51 µM (inactive),11.6 µM (inactive),12.5 µM (inactive),14.8 µM (inactive),30.3 µM (inactive),10.5 µM (inactive),14.9 µM (inactive),16.4 µM (inactive),5.65 µM (inactive),14.5 µM (inactive),5.93 µM (inactive),14.9 µM (inactive),13.9 µM (inactive),15.3 µM (inactive),0.687 µM (active)
CCOC(=O)c1[nH]c2ccccc2c1C(=O)C[C@H](NC(=O)C(F)(F)F)C(=O)OC,> 100 µM (inactive),> 100 µM (inactive),> 100 µM (inactive),> 100 µM (inactive),> 100 µM (inactive),> 100 µM (inactive),84.1 µM (inactive),97.3 µM (inactive),> 100 µM (inactive),> 100 µM (inactive),> 100 µM (inactive),29.3 µM (inactive),> 100 µM (inactive),> 100 µM (inactive),> 100 µM (inactive),> 100 µM (inactive),> 100 µM (inactive),> 100 µM (inactive),> 100 µM (inactive)
COCCC(NC(=O)C(CC(C)C)NC(=O)OC(C)(C)C)C(N)=O (stereo not drawn) (Boc-Leu-[hSer](Me)-NH2; configuration not given here),> 100 µM (inactive),> 100 µM (inactive),> 100 µM (inactive),> 100 µM (inactive),> 100 µM (inactive),> 100 µM (inactive),> 100 µM (inactive),> 100 µM (inactive),> 100 µM (inactive),> 100 µM (inactive),> 100 µM (inactive),> 100 µM (inactive),> 100 µM (inactive),,> 100 µM (inactive),> 100 µM (inactive),> 100 µM (inactive),> 100 µM (inactive),> 100 µM (inactive)
